# Data reported in US5232937A, “Derivatives of N-phenylbenzamide with anti-ulcer and anti-allergy” (Rotta Research Laboratorium SpA., priority 1989, dated 1993).
# Read-outs that look alike come from different tables or passages of the source.
# Experiments:
# [1] = system: gastric acid secretion induced by pentagastrin; experiment: Anti-secretive activity, gastric acid secretion stimulated with pentagastrin (Lai method, modified); type: in vivo; settings: Rattus norvegicus, iv, 1 h; I.V.; rats; pentagastrin 30 mcg/kg/h; read-out: ED50, antagonistic activity towards secretion induced by pentagastrin
# Procedure: (§1) The anti-secretive activities were determined in rats with the use of male animals weighing approximately 200 g, anaesthetised with urethane. Gastric secretion was stimulated with pentagastrin, histamine or cabachol.
# (§2) After tracheotomy, cannulae were inserted in the aesophagus and the duodenum. These were perfused with a tepid solution (37° C.) which was passed through the stomach at a constant flow rate of 1 ml/minute by means of a peristaltic pump. After stabilisation for 20 minutes, the stimulant, dissolved in a physiological solution, was perfused for 120 minutes at the dose indicated in Table 1 in a volume of 0.95 ml/hour. After 60 minutes of perfusion (base stimulation) the product under test was administered intravenously (I.V.) in a bolus and the perfusion of the stimulant was continued for a further 60 minutes. The acid secretion was recorded continuously as a function of time.
# (§3) The activity of the product was evaluated as a percentage reduction in the acid secreted after the administration of the product against the base acidity measured in the first 60 minutes of collection which was in the presence of the stimulant alone.
# [2] = system: gastric acid secretion induced by histamine; experiment: Anti-secretive activity, gastric acid secretion stimulated with histamine (Lai method, modified); type: in vivo; settings: Rattus norvegicus, iv, 1 h; I.V.; rats; histamine 2.3 mg/kg/h; read-out: ED50, antagonistic activity towards secretion induced by histamine
# Procedure: as §1, §2, §3
# [3] = system: gastric acid secretion induced by carbachol; experiment: Anti-secretive activity, gastric acid secretion stimulated with carbachol (Lai method, modified); type: in vivo; settings: Rattus norvegicus, iv, 1 h; I.V.; rats; carbachol 30 mcg/kg/h; read-out: ED50, antagonistic activity towards secretion induced by carbachol
# Procedure: as §1, §2, §3
# [4] = system: ulcer caused by ethanol; experiment: Cytoprotective activity, ulcer caused by ethanol; type: in vivo, rat; settings: for ED50: Rattus norvegicus, iv, 1 h, read-out: ED50, cytoprotective activity, ulcer caused by ethanol; for protective activity (in words): ulcer models of Table 2 (ethanol, 25% NaCl, stress)
# Procedure: (§4) The drugs under test were administered intravenously 15 minutes before the irritant. […] It consists of the assignment of arbitrary points according to the number and gravity of the lesions in accordance with the following criterion:
# (§5) 1 if the length of the necrotic area is 2 mm
# (§6) 2 if the length of the necrotic area is between 2 and 4 mm
# (§7) 3 if the length of the necrotic area is 4 mm
# (§8) 5 if the length of the area is 4 mm with a perforated ulcer.
# (§9) A lesion index is then obtained by adding the number of lesions multiplied by their respective points.
# [5] = system: ulcer caused by 25% NaCl; experiment: Cytoprotective activity, ulcer caused by 25% NaCl; type: in vivo; settings: Rattus norvegicus, iv, 1 h, read-out: ED50, cytoprotective activity, ulcer caused by 25% NaCl
# Procedure: as §4, §5, §6, §7, §8, §9
# [6] = system: ulcer caused by stress; experiment: Cytoprotective activity, ulcer caused by stress (containment); type: in vivo; settings: Rattus norvegicus, im, 5 h, read-out: ED50, cytoprotective activity, ulcer caused by stress
# Procedure: as §5, §6, §7, §8, §9
# Male rats weighing approximately 150 g which had been starved for 24 hours were imprisoned in individual cylindrical cages and immersed up to the xiphoid process in cool water kept thermostatically at 19° C. The compounds were administrated intramuscularly (I.M.) 15 minutes before the start of the test.
# 5 hours after the start of their containment, the animals were killed, their stomachs were removed and a quantitative evaluation was then carried out as described above.
# [7] = system: passive cutaneous anaphylaxis reaction; experiment: Passive cutaneous anaphylaxis (PCA) in rats, modified Goose and Blair method; type: in vivo, rat; settings: for ED50: Rattus norvegicus, iv, 0.5 h, I.V., rats
# Procedure: Male rats weighing approximately 400 g were treated with 10 mg/kg of grade V egg albumen dissolved in 1 ml of a physiological solution by I.M. and intraperitoneal (I.P.) routes. With one mg of Freund's complete adjuvent solution. 13 days after sensitisation, the animals were killed under […] anaesthesia, the blood was taken and the serum was kept at -70° C. after its titre of IgE specific to egg albumen had been assayed. On the basis of type, 2 intradermal injections (i.d.) of 0.1 ml of the antiserum, titrated and suitably diluted were given into the shaved backs of 200 g male rats at a time -24h.
# The products under test were administered I.V. 20 minutes of the antigen. The animals were killed 30 minutes after the challenge, the skin of the back was turned inside out and the larger and smaller diameters of each blemish were measured. In practice the response of each animal was evaluated as the average of four diameters.
# [8] = system: actively-sensitised guinea-pig lung fragments (histamine release); experiment: Anaphylaxis in vitro, histamine release from actively sensitised guinea-pig lung fragments (modified Broklehurst method); type: cell-based; settings: for inhibition at 10 µg/mL / inhibition at 30 µg/mL / inhibition at 100 µg/mL / inhibition at 300 µg/mL / EC50: Cavia porcellus; for inhibition at 10 µg/mL: 10 mcg/ml; for inhibition at 10 µg/mL / inhibition at 30 µg/mL / inhibition at 100 µg/mL / inhibition at 300 µg/mL: read-out: % inhibition of anaphylactic histamine release; for inhibition at 30 µg/mL: 30 mcg/ml; for inhibition at 100 µg/mL: 100 mcg/ml; for inhibition at 300 µg/mL: 300 mcg/ml; for EC50: guinea-pig lung fragments in vitro, read-out: EC50, anaphylactic histamine release; for activity in the in vitro anaphylaxis model relative to DSCG: compared with DSCG
# Procedure: Male guinea pigs weighing approximately 250 g were sensitised with […] of grade V egg albumen dissolved in 1 ml of physiological solution and administered (1 ml/kg) I.P. and subcutaneously (S.C.). After three weeks the animals were killed under ethereal anaesthesia by bleeding. The lungs were removed and immersed in Tyrode solution at 4° C. Homogeneous fragments approximately 2 mm long were cut and divided into test pieces containing approximately 400 mg of tissue and […] of Tyrode. The samples were preincubated at 37° C. for 15 minutes with the compounds under test dissolved in 0.1 of Tyrode and incubated for a further 20 minutes at 37° C. The reaction was stopped by cooling in ice.
# 0.8 ml of the supernatant liquid were treated with perchloric acid and centrifuged to remove the proteins. The supernatant liquid was then made alkaline with 5N NaOH, the histamine was extracted with n-butanol and, after suitable dilution with n-heptane, was extracted again in dilute HCl.
# O-phthalaldehyde was added to the samples and their fluorescence was measured with a fluorimeter at 450 mu after activation at 360 mu.
# The histamine concentration in the samples was obtained from a standard straight-line graph in the range 50-800 ng/ml of histamine.
# [9] = Toxicity (LD50 IV in mice); settings: mouse, in vivo
# [10] = I.V., rats, 15 minutes before ethanol
# [11] = I.V., rats, 15 minutes before NaCl
# [12] = I.M., rats, 15 minutes before the test
smiles,measurement,setting,value
"O=C(O)c1cc(NC(=O)c2ccc(Cl)cc2)cc(C(=O)O)c1 [Compound 3, N-(3,5-dicarboxy)phenyl-4-chlorobenzamide]",ED50,[1],115 mg/kg
same,ED50,[2],108 mg/kg
same,ED50,[3],104 mg/kg
"CN/C(=N/CCSCc1nc[nH]c1C)NC#N [[…], cimetidine, reference compound]",ED50,[4],> 50 mg/kg
same,protective activity (in words),[4],inactive
same,ED50,[5],> 50 mg/kg
same,ED50,[6],> 75 mg/kg
"O=C(O)c1cc(NC(=O)c2ccc(O)c(O)c2)cc(C(=O)O)c1 [Compound 7, N-(3,5-dicarboxy)phenyl-3,4-di-hydroxybenzamide]",ED50,[1],97 mg/kg
same,ED50,[2],102 mg/kg
same,ED50,[3],90 mg/kg
"N#Cc1ccc(C(=O)Nc2cc(C(N)=O)cc(C(=O)O)c2)cc1 [Compound 13, N-(3-carboxy-5-carbamoyl)phenyl-4-cyanobenzamide]",ED50,[1],68 mg/kg
same,ED50,[2],73 mg/kg
same,ED50,[3],65 mg/kg
"COc1ccc(C(=O)Nc2cc(C(=O)O)cc(C(=O)O)c2)cc1 [Compound 5, N-(3,5-dicarboxy)phenyl-4-methoxybenzamide]",ED50,[1],223 mg/kg
same,ED50,[2],240 mg/kg
same,ED50,[3],> 250 mg/kg
"Cc1ccc(C(=O)Nc2cc(C(=O)O)cc(C(=O)O)c2)cc1 [Compound 4, N-(3,5-dicarboxy)phenyl-4-methylbenzamide]",ED50,[1],189 mg/kg
same,ED50,[2],> 250 mg/kg
same,ED50,[3],216 mg/kg
"O=C(O)c1cc(NC(=O)c2ccc(-c3nn[nH]n3)cc2)cc(C(=O)O)c1 [Compound 11, N-(3,5-dicarboxy)phenyl-4-(5-tetrazolyl)-benzamide]",ED50,[4]; [10],7 mg/kg
same,ED50,[5]; [11],29 mg/kg
same,ED50,[1],33 mg/kg
same,% inhibition of passive cutaneous anaphylaxis,[7]; 50 mg/kg I.V.,53.3%
same,% inhibition of passive cutaneous anaphylaxis,[7]; 100 mg/kg I.V.,66%
same,% inhibition of passive cutaneous anaphylaxis,[7]; 150 mg/kg I.V.,74.7%
same,ED50,[7],42.6 mg/kg
same,ED50,[6]; [12],65 mg/kg
same,ED50,[2],41 mg/kg
same,ED50,[3],50 mg/kg
same,inhibition at 10 µg/mL,[8],11.8%
same,inhibition at 30 µg/mL,[8],27.2%
same,inhibition at 100 µg/mL,[8],42.4%
same,inhibition at 300 µg/mL,[8],53.3%
same,EC50,[8],216 mg/L
same,activity in the in vitro anaphylaxis model relative to DSCG,[8],10-15 times
"O=C(O)c1cc(NC(=O)c2ccc([N+](=O)[O-])cc2)cc(C(=O)O)c1 [Compound 2, N-(3,5-dicarboxy)phenyl-4-nitrobenzamide]",ED50,[1],91 mg/kg
same,ED50,[2],109 mg/kg
same,ED50,[3],68 mg/kg
"O=C(O)c1cc(=O)c2c(OCC(O)COc3cccc4oc(C(=O)O)cc(=O)c34)cccc2o1 [DSCG, Di-sodium chromoglycate, reference compound]",% inhibition of passive cutaneous anaphylaxis,[7]; 50 mg/kg I.V.,16.0%
same,% inhibition of passive cutaneous anaphylaxis,[7]; 100 mg/kg I.V.,22.1%
same,% inhibition of passive cutaneous anaphylaxis,[7]; 150 mg/kg I.V.,57.5%
same,ED50,[7],153 mg/kg
same,dose relation of activity (in words),[8]; 10-300 mcg/ml,poorly dose-related
same,"inhibitory effect on the release of histamine, all doses tested",[8]; 10-300 mcg/ml,≤ 50%
same,inhibition at 10 µg/mL,[8],6.8%
same,inhibition at 30 µg/mL,[8],19.7%
same,inhibition at 100 µg/mL,[8],17.8%
same,inhibition at 300 µg/mL,[8],41.2%
same,EC50,[8],1460 mg/L
"N#Cc1ccc(C(=O)Nc2cc(C(=O)O)cc(C(=O)O)c2)cc1 [Compound 1, N-(3,5-dicarboxy)phenyl-4-cyanobenzamide]",ED50,[4]; [10],45 mg/kg
same,ED50,[5]; [11],42 mg/kg
same,ED50,[1],50 mg/kg
same,% inhibition of passive cutaneous anaphylaxis,[7]; 50 mg/kg I.V.,20.0%
same,% inhibition of passive cutaneous anaphylaxis,[7]; 100 mg/kg I.V.,37.2%
same,% inhibition of passive cutaneous anaphylaxis,[7]; 150 mg/kg I.V.,58.2%
same,ED50,[7],128 mg/kg
same,ED50,[6]; [12],135 mg/kg
same,LD50,[9]; IV in mice,2400 mg/kg
same,selectivity ratio,"[9]; LD50 IV mice versus ED50 of pentagastrin, read-out: toxic dose relative to the antacid-secretion dose",~50
same,ED50,[2],47 mg/kg
same,ED50,[3],33 mg/kg
"NC(=O)c1cc(NC(=O)c2ccc(-c3nn[nH]n3)cc2)cc(C(=O)O)c1 [Compound 14, N-(3-carboxy-5-carbamoyl)phenyl-4-(5-tetrazolyl)-benzamide]",ED50,[1],51 mg/kg
same,ED50,[2],48 mg/kg
same,ED50,[3],48 mg/kg
"CN1CCN(CC(=O)N2c3ccccc3C(=O)Nc3cccnc32)CC1 [PIRENZEPINE, pirenzepine, reference compound]",ED50,[4]; [10],> 50 mg/kg
same,protective activity (in words),[4],inactive
same,ED50,[5]; [11],> 50 mg/kg
same,ED50,[6]; [12],> 75 mg/kg
"O=C(Nc1ccc(-c2nn[nH]n2)cc1)c1ccc(-c2nn[nH]n2)cc1 [Compound 12, N-°4-(5-tetrazolyl)phenyl-4-(5-tetrazolyl)-benzamide]",ED50,[4],3 mg/kg
same,ED50,[5],12 mg/kg
same,ED50,[1],26 mg/kg
same,% inhibition of passive cutaneous anaphylaxis,[7]; 10 mg/kg I.V.,39.0%
same,% inhibition of passive cutaneous anaphylaxis,[7]; 30 mg/kg I.V.,45.3%
same,% inhibition of passive cutaneous anaphylaxis,[7]; 100 mg/kg I.V.,67.6%
same,ED50,[7],30.9 mg/kg
same,ED50,[6],56 mg/kg
same,ED50,[2],32 mg/kg
same,ED50,[3],30 mg/kg
same,inhibition at 10 µg/mL,[8],22.8%
same,inhibition at 30 µg/mL,[8],28.4%
same,inhibition at 100 µg/mL,[8],56.2%
same,inhibition at 300 µg/mL,[8],65.4%
same,EC50,[8],93 mg/L
same,activity in the in vitro anaphylaxis model relative to DSCG,[8],10-15 times
"N#Cc1ccc(C(=O)Nc2ccc(-c3nn[nH]n3)cc2)cc1 [Compound 10, N-°4-(5-tetrazolyl)e-phenyl-4-cyanobenzamide]",ED50,[1],42 mg/kg
same,ED50,[2],45 mg/kg
same,ED50,[3],39 mg/kg
"COc1ccc(C(=O)Nc2cc(C(=O)O)cc(C(=O)O)c2)cc1OC [Compound 8, N-(3,5-dicarboxy)phenyl-3,4-dimethoxybenzamide]",ED50,[1],208 mg/kg
same,ED50,[2],222 mg/kg
same,ED50,[3],188 mg/kg
"COc1cc(C(=O)Nc2cc(C(=O)O)cc(C(=O)O)c2)ccc1[N+](=O)[O-] [Compound 9, N-(3,5-dicarboxy)phenyl-3-methoxy-4-nitrobenzamide]",ED50,[1],88 mg/kg
same,ED50,[2],100 mg/kg
same,ED50,[3],88 mg/kg
"O=C(O)c1cc(NC(=O)c2ccc([N+](=O)[O-])c(O)c2)cc(C(=O)O)c1 [Compound 6, N-(3,5-dicarboxy)phenyl-3-hydroxy-4-nitrobenzamide]",ED50,[1],210 mg/kg
same,ED50,[2],205 mg/kg
same,ED50,[3],186 mg/kg
